Experiments:
[1] = xn = mol fraction of the nth substance listed; settings: 100 kPa, Liquid; for viscosity: Capillary tube (Ostwald / Ubbelohde) method; for speed of sound: Frequency=2 MHz, Single path-length method; for mass density: Vibrating tube method
[2] = 100 kPa, Liquid; for viscosity: Capillary tube (Ostwald / Ubbelohde) method; for speed of sound: Frequency=2 MHz, Single path-length method; for mass density: Vibrating tube method

COc1ccccc1 [anisole] + C=COC(C)=O
[1], x2 = 0
Settings	mass density [kg/m3]	speed of sound [m/s]	viscosity [mPa·s]
303.15 K	984.4	1386	0.929
308.15 K	979.8	1366	0.849
313.15 K	975	1348	0.788

C=COC(C)=O [vinyl acetate]
[2]
Settings	mass density [kg/m3]	speed of sound [m/s]	viscosity [mPa·s]
303.15 K	919.4	1092	0.388
308.15 K	913.5	1074	0.37
313.15 K	907.3	1054	0.352

C=COCCCC [1-(ethenyloxy)butane]
[2]
Settings	mass density [kg/m3]	speed of sound [m/s]	viscosity [mPa·s]
303.15 K	769	1086	0.386
308.15 K	763.9	1076	0.373
313.15 K	758.8	1066	0.352

CC(C)OC(C)C [diisopropyl ether] + C=COC(C)=O
[1], x2 = 0
Settings	mass density [kg/m3]	speed of sound [m/s]	viscosity [mPa·s]
303.15 K	713.1	982	0.301
308.15 K	707.9	962	0.287
313.15 K	702.5	942	0.276

C=COC(C)=O [vinyl acetate] + C=COCCCC
[1], x1 = 1
Settings	mass density [kg/m3]	speed of sound [m/s]	viscosity [mPa·s]
303.15 K	919.4	1092	0.388
308.15 K	913.5	1074	0.37
313.15 K	907.3	1054	0.352

CC(C)OC(C)C [diisopropyl ether]
[2]
Settings	mass density [kg/m3]	speed of sound [m/s]	viscosity [mPa·s]
303.15 K	713.1	982	0.301
308.15 K	707.9	962	0.287
313.15 K	702.5	942	0.276

COc1ccccc1 [anisole]
[2]
Settings	mass density [kg/m3]	speed of sound [m/s]	viscosity [mPa·s]
303.15 K	984.4	1386	0.929
308.15 K	979.8	1366	0.849
313.15 K	975	1348	0.788

Reference: the NIST ThermoML archive (doi:10.1016/j.jct.2019.04.018)
